Measured values published in patent US7329761B2, “Substituted imides” (Celgene Corporation, priority 1994, dated 2008).

| melting point [°C] | Structure (SMILES) |
| --- | --- |
| 124 to 125 | COc1ccc(C(C)N2C(=O)c3ccccc3C2=O)cc1OC (stereo not shown) [Example 2, 1-Phthalimido-1-(3′,4′-dimethoxyphenyl) Ethane] |
| 85 to 86 | CCC(c1ccc(OC)cc1)N1C(=O)c2ccccc2C1=O (stereo not shown) [Example 3, 1-Phthalimido-1-(4-methoxyphenyl)propane] |
| 160 to 161 | COc1ccc(CN2C(=O)c3ccccc3C2=O)cc1OC [Example 4, 1-Phthalimido-1-(3′,4′-dimethoxyphenyl)methane] |
| 100 to 101 | CCCC(CCC)C(c1ccc(OC)c(OC)c1)N1C(=O)c2ccccc2C1=O (stereo not shown) [Example 7, 1-Phthalimido-1 (3′,4′-dimethoxyphenyl)-2-propylpentane] |
